The test concerns Aβ42 production in rat primary neuronal culture. The test is described as follows: Quantification of Aβ peptide (Aβ42 ELISA) in culture of neurons from rat fetus brain. The test is classed as cell-based. The following applies: Rattus norvegicus, Neuron, 72 h; primary neuronal culture from cerebral cortex of embryonic day 18 Wistar rats; cultured three days after addition of compound; Aβ42 in medium by ELISA; read-out: Aβ42 Production reducing action IC50. As for the experimental part: Quantification of Aβ Peptide in Culture of Neurons from Rat Fetus Brain
(1) Rat Primary Neuronal Culture
Primary neuronal cultures were prepared from the cerebral cortex of embryonic day 18 Wistar rats (Charles River Japan, Yokohama, Japan). Specifically, the embryos were aseptically removed from pregnant rats under ether anesthesia. The brain was isolated from the embryo and immersed in an ice-cold L-15 medium (Invitrogen Corp. Cat #11415-064, Carlsbad, Calif., USA, or SIGMA L1518, for example). The cerebral cortex was collected from the isolated brain under a stereoscopic microscope. The cerebral cortex fragments collected were enzymatically treated in an enzyme solution containing 0.25% trypsin (Invitrogen Corp. Cat #15050-065, Carlsbad, Calif., USA) and 0.01% DNase (Sigma D5025, St. Louis, Mo., USA) at 37° C. for 30 minutes to disperse the cells. Here, the enzymatic reaction was stopped by adding inactivated horse serum to the solution. The enzymatically treated solution was centrifuged at 1,500 rpm for five minutes to remove the supernatant 5 to 10 ml of a medium was added to the resulting cell mass. Neurobasal medium (Invitrogen Corp. Cat #21103-049, Carlsbad, Calif., USA) supplemented with 2% B27 supplement (Invitrogen Corp. Cat #17504-044, Carlsbad, Calif., USA), 25 μM 2-mercaptoethanol (2-ME, WAKO Cat #139-06861, Osaka, Japan), 0.5 mM L-glutamine (Invitrogen Corp. Cat #25030-081, Carlsbad, Calif., USA), and Antibiotics-Antimycotics (Invitrogen Corp. Cat #15240-062, Carlsbad, Calif., USA) was used as the medium (Neurobasal/B27/2-ME). However, the above Neurobasal medium not supplemented with 2-ME (Neurobasal/B27) was used for the assay. The cells were redispersed by mild pipetting of the cell mass to which the medium was added. The cell dispersion was filtered through a 40-μm nylon mesh (Cell Strainer, Cat #35-2340, Becton Dickinson Labware, Franklin Lakes, N.J., USA) to remove the remaining cell mass, and thus a neuronal cell suspension was obtained. The neuronal cell suspension was diluted with the medium and then plated in a volume of 100 μl/well at an initial cell density of 5×10^5 cells/cm^2 in a 96-well polystyrene culture plate pre-coated with poly-L or D-lysine (Falcon Cat #35-3075, Becton Dickinson Labware, Franklin Lakes, N.J., USA coated with poly-L-lysine using the method shown below, or BIOCOAT™ cell environments Poly-D-lysine cell ware 96-well plate, Cat #35-6461, Becton Dickinson Labware, Franklin Lakes, N.J., USA). Poly-L-lysine coating was carried out as follows. 100 μg/ml of a poly-L-lysine (SIGMA P2636, St. Louis, Mo., USA) solution was aseptically prepared with a 0.15 M borate buffer (pH 8.5). […] Thereafter, the coated 96-well polystyrene culture plate was washed with sterile water four or more times, and then dried or rinsed with sterile PBS or medium, and used for cell plating. The plated cells were cultured in the culture plate at 37° C. in 5% CO2-95% air for one day. Then, the total amount of the medium was replaced with a fresh Neurobasal/B27/2-ME medium, and then the cells were cultured for further three days.
The drug was added to the culture plate on Day 4 of culture as follows. The total amount of the medium was removed from the wells, and 180 μl/well of Neurobasal medium not containing 2-ME and containing 2% B-27 (Neurobasal/B27) was added thereto. A solution of the test compound in dimethyl sulfoxide (hereinafter abbreviated as DMSO) was diluted with Neurobasal/B27 to a concentration 10-fold higher than the final concentration. 20 μl/well of the dilution was added to and sufficiently mixed with the medium. The final DMSO concentration was 1% or less. Only DMSO was added to the control group.
The cells were cultured for three days after addition of the compound, and the total amount of the medium was collected. The resulting medium was used as an ELISA sample. […]
(An ELISA detects its analyte on a solid surface through an enzyme-linked reagent.)

This is an account of results in patent US8754100B2, “Nitrogen-containing fused heterocyclic compounds and their use as beta amyloid production inhibitors” (EISAI R&D Management Co., Ltd., priority 2009, dated 2014).

SMILES strings stand for the structures. pIC50: −log10 of the molar value.

By pIC50 is commonly meant −log10 of the IC50, conventionally taken in molar units. As for `COc1cc([C@@H]2CCCn3cc(-c4ccc(-n5cnc(C)c5)c(OC)n4)nc32)ccc1C(C)(C)C` [Example 240], the pIC50 is 8.30.
Regarding `COc1nc(-c2nc3n(n2)CCC[C@H]3c2cc(N(CC3CC3)CC(F)(F)F)ccc2Cl)ccc1-n1cnc(C)c1` [Example 313], the pIC50 is 8.22.
